How the values were obtained:
Format in all cases: functional
Malme-3M = experiment: Cytotoxicity against human MALME-3M cells assessed as cell growth at 10 uM after 48 hrs by SRB assay relative to control; details: read-out: Activity
BT-549 = experiment: Cytotoxicity against human BT549 cells assessed as cell growth at 10 uM after 48 hrs by SRB assay relative to control; details: BT-549, 48 h, read-out: Activity
MOLT-4 = experiment: Cytotoxicity against human MOLT4 cells assessed as cell growth at 10 uM after 48 hrs by SRB assay relative to control; details: MOLT-4, 48 h, read-out: Activity
[1] = Cytotoxicity against human OVCAR3 cells assessed as cell growth at 10 uM after 48 hrs by SRB assay relative to control; details: OVCAR-3, 48 h, read-out: Activity
MDA-MB-231 = experiment: Cytotoxicity against human MDA-MB-231 cells assessed as cell growth at 10 uM after 48 hrs by SRB assay relative to control; details: MDA-MB-231, 48 h, read-out: Activity
U-251 = experiment: Cytotoxicity against human U251 cells assessed as cell growth at 10 uM after 48 hrs by SRB assay relative to control; details: U-251, 48 h, read-out: Activity
SF-268 = experiment: Cytotoxicity against human SF268 cells assessed as cell growth at 10 uM after 48 hrs by SRB assay relative to control; details: SF-268, 48 h, read-out: Activity
MDA-MB-435 = experiment: Cytotoxicity against human MDA-MB-435 cells assessed as cell growth at 10 uM after 48 hrs by SRB assay relative to control; details: MDA-MB-435, 48 h, read-out: Activity
HT-29 = experiment: Cytotoxicity against human HT-29 cells assessed as cell growth at 10 uM after 48 hrs by SRB assay relative to control; details: HT-29, 48 h, read-out: Activity
SR = experiment: Cytotoxicity against human SR cells assessed as cell growth at 10 uM after 48 hrs by SRB assay relative to control; details: read-out: Activity
HCC 2998 = experiment: Cytotoxicity against human HCC2998 cells assessed as cell growth at 10 uM after 48 hrs by SRB assay relative to control; details: HCC 2998, 48 h, read-out: Activity
[2] = Cytotoxicity against human Hs 578T cells assessed as cell growth at 10 uM after 48 hrs by SRB assay relative to control; details: read-out: Activity
[3] = Cytotoxicity against human OVCAR4 cells assessed as cell growth at 10 uM after 48 hrs by SRB assay relative to control; details: OVCAR-4, 48 h, read-out: Activity
NCI-H322M = experiment: Cytotoxicity against human NCI-H322M cells assessed as cell growth at 10 uM after 48 hrs by SRB assay relative to control; details: read-out: Activity
NCI-H226 = experiment: Cytotoxicity against human NCI-H226 cells assessed as cell growth at 10 uM after 48 hrs by SRB assay relative to control; details: NCI-H226, 48 h, read-out: Activity
T47D = experiment: Cytotoxicity against human T47D cells assessed as cell growth at 10 uM after 48 hrs by SRB assay relative to control; details: read-out: Activity
[4] = Cytotoxicity against human NCI-ADR-RES cells assessed as cell growth at 10 uM after 48 hrs by SRB assay relative to control; details: read-out: Activity
TK-10 = experiment: Cytotoxicity against human TK10 cells assessed as cell growth at 10 uM after 48 hrs by SRB assay relative to control; details: TK-10, 48 h, read-out: Activity
DU-145 = experiment: Cytotoxicity against human DU145 cells assessed as cell growth at 10 uM after 48 hrs by SRB assay relative to control; details: DU-145, 48 h, read-out: Activity
HOP-62 = experiment: Cytotoxicity against human HOP62 cells assessed as cell growth at 10 uM after 48 hrs by SRB assay relative to control; details: HOP-62, 48 h, read-out: Activity
NCI-H522 = experiment: Cytotoxicity against human NCI-H522 cells assessed as cell growth at 10 uM after 48 hrs by SRB assay relative to control; details: NCI-H522, 48 h, read-out: Activity
COLO 205 = experiment: Cytotoxicity against human COLO205 cells assessed as cell growth at 10 uM after 48 hrs by SRB assay relative to control; details: COLO 205, 48 h, read-out: Activity
HOP-92 = experiment: Cytotoxicity against human HOP92 cells assessed as cell growth at 10 uM after 48 hrs by SRB assay relative to control; details: HOP-92, 48 h, read-out: Activity
SN12C = experiment: Cytotoxicity against human SN12C cells assessed as cell growth at 10 uM after 48 hrs by SRB assay relative to control; details: read-out: Activity
M14 = experiment: Cytotoxicity against human M14 cells assessed as cell growth at 10 uM after 48 hrs by SRB assay relative to control; details: M14, 48 h, read-out: Activity
SK-MEL-2 = experiment: Cytotoxicity against human SK-MEL-2 cells assessed as cell growth at 10 uM after 48 hrs by SRB assay relative to control; details: SK-MEL-2, 48 h, read-out: Activity
RXF 393 = experiment: Cytotoxicity against human RXF393 cells assessed as cell growth at 10 uM after 48 hrs by SRB assay relative to control; details: RXF 393, 48 h, read-out: Activity

SMILES: CC(C)=CCC[C@H](C)c1ccc(C)c2c1OCN(CCCCCO)C2
- growth at 10 µM (Malme-3M): 93.7%
- growth at 10 µM (BT-549): 72.1%
- growth at 10 µM (MOLT-4): 66.5%
- growth at 10 µM [1]: 99.7%
- growth at 10 µM (MDA-MB-231): 93.4%
- growth at 10 µM (U-251): 83.8%
- growth at 10 µM (SF-268): 97.5%
- growth at 10 µM (MDA-MB-435): 97.1%
- growth at 10 µM (HT-29): 27.2%
- growth at 10 µM (SR): 66.6%
- growth at 10 µM (HCC 2998): 73.5%
- growth at 10 µM [2]: 81.2%
- growth at 10 µM [3]: 95.5%
- growth at 10 µM (NCI-H322M): 102%
- growth at 10 µM (NCI-H226): 98.4%
- growth at 10 µM (T47D): 88.1%
- growth at 10 µM [4]: 76%
- growth at 10 µM (TK-10): 73.7%
- growth at 10 µM (DU-145): 109%
- growth at 10 µM (HOP-62): 92.5%
- growth at 10 µM (NCI-H522): -1.75%
- growth at 10 µM (COLO 205): 90%
- growth at 10 µM (HOP-92): 27.7%
- growth at 10 µM (SN12C): 78.6%
- growth at 10 µM (M14): 84.2%
- growth at 10 µM (SK-MEL-2): 92.7%
- growth at 10 µM (RXF 393): 90.1%

SMILES: COc1ccc(CCNCc2c(C)ccc([C@@H](C)CCC=C(C)C)c2O)cc1OC
- growth at 10 µM (MOLT-4): 68.2%
- growth at 10 µM [1]: 90.1%
- growth at 10 µM (MDA-MB-231): 87.7%
- growth at 10 µM (U-251): 76.7%
- growth at 10 µM (SF-268): 90.7%
- growth at 10 µM (MDA-MB-435): 97.8%
- growth at 10 µM (HT-29): 48.9%
- growth at 10 µM (SR): 53.4%
- growth at 10 µM (HCC 2998): 15.7%
- growth at 10 µM [2]: 89.6%
- growth at 10 µM [3]: 71%
- growth at 10 µM (NCI-H322M): 99%
- growth at 10 µM (NCI-H226): 78.3%
- growth at 10 µM (T47D): 69.8%
- growth at 10 µM [4]: 83.4%
- growth at 10 µM (TK-10): 90.1%
- growth at 10 µM (DU-145): 83.4%
- growth at 10 µM (HOP-62): 89%
- growth at 10 µM (NCI-H522): 75%
- growth at 10 µM (COLO 205): 67.9%
- growth at 10 µM (SN12C): 87.1%
- growth at 10 µM (M14): 91%
- growth at 10 µM (SK-MEL-2): 99.9%
- growth at 10 µM (RXF 393): 80.8%

SMILES: CC(C)=CCC[C@H](C)c1ccc(C)c(CNCCCCCO)c1O
- growth at 10 µM (Malme-3M): 106%
- growth at 10 µM (BT-549): 108%
- growth at 10 µM (MOLT-4): 83.1%
- growth at 10 µM [1]: 84.2%
- growth at 10 µM (MDA-MB-231): 96.5%
- growth at 10 µM (U-251): 82.9%
- growth at 10 µM (SF-268): 87.8%
- growth at 10 µM (MDA-MB-435): 95%
- growth at 10 µM (HT-29): 55%
- growth at 10 µM (SR): 84%
- growth at 10 µM (HCC 2998): 73%
- growth at 10 µM [2]: 88.4%
- growth at 10 µM [3]: 72.9%
- growth at 10 µM (NCI-H322M): 104%
- growth at 10 µM (NCI-H226): 99.6%
- growth at 10 µM (T47D): 99.1%
- growth at 10 µM [4]: 86.8%
- growth at 10 µM (TK-10): 92.2%
- growth at 10 µM (DU-145): 108%
- growth at 10 µM (HOP-62): 88.4%
- growth at 10 µM (NCI-H522): 89.2%
- growth at 10 µM (COLO 205): 105%
- growth at 10 µM (SN12C): 98%
- growth at 10 µM (M14): 94.3%
- growth at 10 µM (SK-MEL-2): 97.6%
- growth at 10 µM (RXF 393): 84.6%

SMILES: CC(C)=CCC[C@H](C)c1ccc(C)c2c1OCN(CCCCC(=O)O)C2
- growth at 10 µM (Malme-3M): 126%
- growth at 10 µM (MOLT-4): 102%
- growth at 10 µM [1]: 112%
- growth at 10 µM (MDA-MB-231): 91.8%
- growth at 10 µM (U-251): 106%
- growth at 10 µM (SF-268): 100%
- growth at 10 µM (MDA-MB-435): 99.4%
- growth at 10 µM (HT-29): 83.3%
- growth at 10 µM (SR): 105%
- growth at 10 µM (HCC 2998): 102%
- growth at 10 µM [2]: 104%
- growth at 10 µM [3]: 105%
- growth at 10 µM (NCI-H322M): 112%
- growth at 10 µM (NCI-H226): 95.7%
- growth at 10 µM (T47D): 95.4%
- growth at 10 µM [4]: 85.3%
- growth at 10 µM (TK-10): 86.1%
- growth at 10 µM (DU-145): 118%
- growth at 10 µM (HOP-62): 94.6%
- growth at 10 µM (NCI-H522): 44.8%
- growth at 10 µM (COLO 205): 110%
- growth at 10 µM (HOP-92): 83.7%
- growth at 10 µM (SN12C): 97.6%
- growth at 10 µM (M14): 92.5%
- growth at 10 µM (SK-MEL-2): 84%
- growth at 10 µM (RXF 393): 102%

— ChEMBL document CHEMBL3390836, “Mannich- and LedererManasse-based analogues of the natural product S-(+)-curcuphenol as cancer proliferation and migration inhibitors” (Medchemcomm, 2012)
